Experimental data taken from patent US12377176B2, “Cancer diagnostic imaging agents” (Technische Universität München, priority 2019, dated 2025).
“And” between values parts separate entries of the source, which are not always exact repeats. Identical values can stand only once. Like-named read-outs stand apart in the source and are kept apart here. Marks after values point to notes of the source that are not given here.

Legend:
[1] = molecular target: T1, PSMA (Homo sapiens, UniProt Q04609); experiment: Determination of IC50: PSMA affinity, competition with ([125I]I-BA)KuE on LNCaP cells; assay type: binding; details: LNCaP cells, [125I]IB-KuE 0.2 nM, 1 h, 4 °C
T1 construct: endogenous in cells; host or cells: LNCaP cells
Experimental: After removal of the culture medium, the cells were treated once with 500 μL of HBSS (Hank's balanced salt solution, Biochrom, Berlin, Germany, with addition of 1% bovine serum albumin (BSA)) and left 15 min on ice for equilibration in 200 μL HBSS (1% BSA). […] Quantification of bound and free radioligand was accomplished in a γ-counter.

[2] = In vivo distribution of rhPSMA-7 isomers after rhPSMA7-rac: radio-HPLC and radio-TLC of blood, organ and urine samples; design: species or system mice
Experimental: In order to quantify the relative uptake of each isomer (rhPSMA-7.1-7.4), a tumor-bearing male CB-17-SCID mouse was injected with the racemic mixture of rhPSMA-7 (180-280 MBq, SA=247-349 GBq/μmol, produced at the Klinikum rechts der Isar in a fully automated procedure). The animal was left under anesthesia for 30 min and sacrificed. Urine, blood, liver, kidneys and tumor were collected and processed to the hereafter described procedures. The urine sample was centrifuged for 5 min at 9000 rpm to yield a clear solution and directly subjected to radio-HPLC analysis. Blood was diluted to 1 mL with H2O and centrifuged twice at 13000 g for 5 min. The supernatant was collected and loaded on a Strata X cartridge (33 μm Polymeric Reversed Phase 500 mg, pre-conditioned with 5 mL MeOH, followed by 5 mL H2O). After washing with 5 mL H2O, the cartridge was eluted with a 6:4 mixture (v/v) of MeCN in H2O, supplemented with 1% TFA. The eluate was diluted with water and analysed by radio-HPLC. Tumour, kidneys and liver were homogenised using either a Potter-Elvehjem tissue grinder (Kontes Glass Co, Vineland, USA) or a MM-400 ball mill (Retsch GmbH, Haan, Germany).
Tumour and kidneys were separately homogenised in the tissue homogeniser with 1 mL of extraction buffer (850 μL 1 M HEPES pH7.4, 100 μL20 mM PMPA and 100 μL 1M NaCl) for 30 min. The resulting homogenate was collected and centrifuged at 13000 g for 5 min. Subsequently the supernatant was collected, centrifuged again (13000 g, 5 min) and loaded on a Strata X cartridge (33 μm Polymeric Reversed Phase 500 mg, pre-conditioned with 5 mL MeOH, followed by 5 mL H2O). After washing with 5 mL H2O, the cartridge was eluted with a 6:4 mixture (v/v) of MeCN in H2O, supplemented with 1% TFA. The eluate of each organ was diluted with water and analysed by radio-HPLC.
The organs (tumour, kidney, liver) were separately homogenised in a 2 mL tube together with 3 grinding balls (3 mm diameter) and 1 mL of extraction buffer (850 μL 1 M HEPES pH7.4, 100 μL 20 mM PMPA and 100 μL 1M NaCl) for 10 min at 30 Hz. The homogenate was centrifuged at 13000 g for 5 min and the supernatant was collected. Subsequently, the pellet was suspended in 1 mL of extraction buffer and homogenized again with the ball mill for 10 min at 30 Hz. After centrifugation (13000 g, 5 min), both supernatants were combined and loaded on a Strata X cartridge (33 μm Polymeric Reversed Phase 500 mg, pre-conditioned with 5 mL MeOH, followed by 5 mL H2O). After washing with 5 mL H2O, the cartridge was eluted with a 6:4 mixture (v/v) of MeCN in H2O, supplemented with 1% TFA. The eluate of each organ was diluted with water and analysed by radio-HPLC. […] Finally the ratios of the individual isomers were determined from the HPLC profiles of the extracted samples and compared to the ratios of the isomers from the quality control of the racemic mixture of rhPSMA-7. The decay corrected extraction- and cartridge loading-efficiency, as well as the overall extracted activity of the examined samples are given in table 2. The cartridge elution-efficiency was >99% for all experiments.
Radio-TLC Analysis was carried out a) on urine samples by directly subjecting a small volume onto a TLC strip, b) by analysis of a small volume of the non-immobilized activity during the SPE process (the ‘breakthrough fraction’), and c) by analysis of a small volume of the cartridge eluates.

[3] = Phosphoimager, Blood, 30 min p.i.
[4] = Phosphoimager, Kidney, 30 min p.i.
[5] = Phosphoimager, Tumor, 30 min p.i.
[6] = Phosphoimager, Urine, 30 min p.i., listed as [^18F]rhPSMA7-rac
[7] = TLC Scanner, Kidney, tumor bearing mice 30 min p.i., listed as [^18F]rhPSMA7-rac

T1 sequence (Q04609 whole entry): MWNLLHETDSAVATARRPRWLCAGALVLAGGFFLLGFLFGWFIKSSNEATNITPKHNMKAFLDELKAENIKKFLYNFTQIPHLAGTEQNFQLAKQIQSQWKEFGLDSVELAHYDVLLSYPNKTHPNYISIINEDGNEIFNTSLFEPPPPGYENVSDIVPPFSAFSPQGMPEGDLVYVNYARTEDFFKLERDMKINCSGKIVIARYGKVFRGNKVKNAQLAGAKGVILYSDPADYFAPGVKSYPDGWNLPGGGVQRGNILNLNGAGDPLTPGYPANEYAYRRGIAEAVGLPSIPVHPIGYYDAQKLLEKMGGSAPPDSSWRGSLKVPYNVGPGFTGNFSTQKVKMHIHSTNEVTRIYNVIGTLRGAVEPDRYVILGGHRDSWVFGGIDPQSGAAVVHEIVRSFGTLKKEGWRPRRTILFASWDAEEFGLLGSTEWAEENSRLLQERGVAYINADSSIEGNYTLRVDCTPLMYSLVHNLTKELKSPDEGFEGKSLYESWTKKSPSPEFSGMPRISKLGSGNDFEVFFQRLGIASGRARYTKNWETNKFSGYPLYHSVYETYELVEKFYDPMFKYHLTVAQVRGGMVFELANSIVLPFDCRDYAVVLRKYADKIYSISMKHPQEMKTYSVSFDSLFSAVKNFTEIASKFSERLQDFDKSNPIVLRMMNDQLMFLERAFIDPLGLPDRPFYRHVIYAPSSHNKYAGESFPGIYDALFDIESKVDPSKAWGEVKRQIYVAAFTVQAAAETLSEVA

| Molecule | IC50 ([1]; HBSS+1% BSA, single measurements, read-out: individual IC50 measurements) | IC50 ([1]; mean of the individual measurements, read-out: IC50 Mean) | Intact tracer [2, 3] | ^18F-Fluoride [2, 3] | Intact tracer [2, 4] | ^18F-Fluoride [2, 4] | Intact tracer ([2]; Phosphoimager, Liver, 30 min p.i., listed as [^18F]rhPSMA7-rac) | Intact tracer [2, 5] | ^18F-Fluoride [2, 5] | Intact tracer [2, 6] | ^18F-Fluoride [2, 6] | Intact tracer [2, 7] | ^18F-Fluoride [2, 7] | Intact tracer ([2]; TLC Scanner, Urine, tumor bearing mice 30 min p.i., listed as [^18F]rhPSMA7-rac) |
| --- | --- | --- | --- | --- | --- | --- | --- | --- | --- | --- | --- | --- | --- | --- |
| CC(C)(C)[Si](F)(c1ccc(C(=O)NC[C@@H](NC(=O)CC[C@@H](C(=O)O)N2CCN(CC(=O)O)CCN(CC(=O)O)CCN(CC(=O)O)CC2)C(=O)N[C@H](CCCCNC(=O)CCC(=O)NCCC[C@@H](NC(=O)CC[C@H](NC(=O)N[C@@H](CCC(=O)O)C(=O)O)C(=O)O)C(=O)O)C(=O)O)cc1)C(C)(C)C [rhPSMA7.3, [^19F][^natGa]D-Dap-S-DOTAGA-rhPSMA7, metal not drawn] | 3.17 nM and 2.91 nM and 5.35 nM and 5.74 nM and 4.59 nM and 4.45 nM | 4.37 nM |  |  |  |  |  |  |  |  |  |  |  |  |
| [^19F][^natGa]D/L-Dap-R/S-DOTAGA-rhPSMA7 [rhPSMA7-rac] |  |  | 96.80^ % | 3.20^ % | 96.48^ % | 3.52^ % | 93.92^# % and 74.15^# % | 96.47^ % | 4.15^ % | 98.55^ % and 95.85^ % | 1.55^ % and 4.15^ % | 94.04% and 94.58% | 5.96% and 5.42% | 82.51% and 96.2% |
